According to article PMC7911516, “Investigation of the Factors Responsible for the Poor Oral Bioavailability of Acacetin in Rats: Physicochemical and Biopharmaceutical Aspects” (Pharmaceutics, 2021):
Values after ≈ are worked out from the molar mass of the structure shown. Where two headings read alike, the source gives them in different places.

Key:
[1] = Equilibrium solubility in water, pH 7.4 phosphate buffer, SGF and SIF; format: physicochemical
Description: Simulated gastric fluid (SGF) consisted of 0.2% (w/v) sodium chloride, 0.32% (w/v) pepsin, and 0.7% (v/v) HCl (final pH = 1.2). Simulated intestinal fluid (SIF) was prepared by dissolving 3 mM sodium taurocholate and 0.1% (w/v) pancreatin in phosphate buffer (final pH = 7.0). The solubility of acacetin was measured by adding excessive amounts of acacetin into glass vials containing 1.5 mL of water, pH 7.4 phosphate buffer, SGF, and SIF. The mixtures were allowed to reach equilibrium in a shaking incubator (FINEPCR, Gyeonggi-do, South Korea) at 500 rpm at 37 °C for 48 h. The samples were centrifuged at 16,000× g for 5 min, and the supernatant was passed through a 0.20-μm syringe filter to remove excess acacetin. Further, the concentration of acacetin in the filtrate was determined using the LC-MS/MS method. The distribution coefficients of acacetin in water (log P) and pH 7.4 phosphate buffer (log D7.4) were determined using an octanol–water system at 25 ± 0.5 °C. The two phases were pre-saturated with each other by vigorous vortex-mixing for 15 min and further stabilized overnight for phase separation. A certain amount of acacetin (less than its solubility) was dissolved in the pre-saturated octanol, vortex mixed with the same volume of pre-saturated water for 1 h, shaken for 24 h, and further centrifuged at 16,000× g for 30 min. Finally, the acacetin concentrations in the octanol and water layers were determined using the LC-MS/MS method. The membrane permeability of acacetin and reference compounds (verapamil as a reference for high permeability and ranitidine as a reference for low permeability) was assessed by parallel artificial membrane permeability assay (PAMPA). The PAMPA was conducted using a commercially available PAMPA kit (GIT PAMPA Double Sink; pION Inc., Massachusetts, MA, USA) according to the manufacturer’s protocol. The permeability was calculated using pION PAMPA Explorer ver. 3.8 software (pION Inc., Massachusetts, MA, USA).

[2] = Intravenous pharmacokinetic study in rats; format: in vivo
Description: (§1) The rats were fasted overnight before the experiment and anesthetized using an intramuscular injection of zoletil at 20 mg/kg. The femoral artery and vein were cannulated with a polyethylene tube (Clay Adams, Parsippany, NJ, USA). Acacetin (dissolved in a vehicle composed of DMSO, ethanol, and PEG400 (10:5:85, v/v/v)) was administered intravenously (10 mg/kg) or orally (100 mg/kg) to rats. Approximately 250 μL of blood was collected via the femoral artery at 0, 2, 5, 15, 30, 45, 60, 120, and 180 min after intravenous administration and at 0, 2, 5, 15, 30, 45, 60, 90, 120, and 180 min after oral administration. The cannula was flushed with heparin (20 IU/mL in saline) at each time point to prevent blood clotting. Following centrifugation of the blood sample at 8000× g and 4 °C for 2 min, 120 μL of plasma was obtained. Urine was collected at 1-h intervals in an ice-cold container over 24 h. After urine collection at 24 h, each rat was sacrificed by cervical dislocation; the entire GI tract (including its contents and feces) was excised, transferred into a beaker containing 100 mL methanol, and cut into small pieces using scissors. After manual stirring with a glass rod for 1 min, a 50-μL aliquot of the supernatant was collected. The plasma, urine (Ae24h), and GI tract (GI24h) samples were stored at −80 °C until further LC-MS/MS analysis. A noncompartmental analysis (WinNonlin ver. 3.1; Certara USA Inc., Princeton, NJ, USA) was performed to determine the following pharmacokinetic parameters: the AUCinf, area under plasma concentration versus time curve from time zero to the last sampling time (AUClast), t1/2, total body clearance (CL), apparent volume of distribution at steady state (Vss), and absolute oral bioavailability (F). The Cmax and time to reach Cmax (Tmax) were directly obtained from the plasma concentration versus time data.

[3] = Oral pharmacokinetic study in rats; format: in vivo
Description: as §1, with “analysis.” for “analysis. A noncompartmental analysis (WinNonlin ver. 3.1; Certara USA Inc., Princeton, NJ, USA) was performed to determine the following pharmacokinetic parameters: the AUCinf, area under plasma concentration versus time curve from time zero to the last sampling time (AUClast), t1/2, total body clearance (CL), apparent volume of distribution at steady state (Vss), and absolute oral bioavailability (F). The Cmax and time to reach Cmax (Tmax) were directly obtained from the plasma concentration versus time data.”
A noncompartmental analysis (WinNonlin ver. 3.1; Certara USA Inc., Princeton, NJ, USA) was performed to determine the following pharmacokinetic parameters: the AUCinf, area under plasma concentration versus time curve from time zero to the last sampling time (AUClast), t1/2, total body clearance (CL), apparent volume of distribution at steady state (Vss), and absolute oral bioavailability (F). The Cmax and time to reach Cmax (Tmax) were directly obtained from the plasma concentration versus time data.

Q: For `COc1ccc(-c2cc(=O)c3c(O)cc(O)cc3o2)cc1` [acacetin, Acacetin], which solubility at 48 h ([1]; aqueous buffer, thermodynamic from solid, pH 7.4 phosphate buffer, 37 °C, 48 h, read-out: Solubility, pH 7.4 phosphate buffer) is on record?
A: The solubility at 48 h was 0.0121 ± 0.0011 µg/mL (≈ 0.0426 µM).

Q: What about the solubility at 48 h ([1]; fassgf or other biorelevant, thermodynamic from solid, SIF pH 7.0, 37 °C, 48 h, read-out: Solubility, SIF) of the same compound?
A: Its solubility at 48 h is 0.119 ± 0.008 µg/mL (≈ 0.419 µM).

Q: What about the solubility at 48 h ([1]; pH 7 phosphate buffer, SGF and SIF, pH 7, in abstract, read-out: Solubility in pH 7 phosphate buffer and simulated GI fluids) of the same compound?
A: Its solubility at 48 h is no more than 0.119 µg/mL.

Q: And the solubility at 48 h ([1]; simulated gastric fluid, thermodynamic from solid, SGF pH 1.2, 37 °C, 48 h, read-out: Solubility, SGF)?
A: The solubility at 48 h was 0.0593 ± 0.0071 µg/mL (≈ 0.209 µM).

Q: What about the solubility at 48 h ([1]; thermodynamic from solid, water, 37 °C, 48 h, read-out: Solubility, Water) of the same compound?
A: The solubility at 48 h was 0.0401 ± 0.0073 µg/mL (≈ 0.141 µM).

Q: And the solubility at 48 h ([1]; water, pH 7.4 phosphate buffer, SGF and SIF, pH 7.4, upper bound over all four media, read-out: Solubility in water, pH 7.4 buffer, SGF, and SIF)?
A: Its solubility at 48 h is no more than 0.119 µg/mL.

Q: And the “Urinary and GI (including biliary) excretion of unchanged acacetin” value ([2]; IV 10 mg/kg)?
A: Its value is 1.5–12.8 % of dose.

Q: And the GI24h ([2]; IV 10 mg/kg, GI tract at 24 h)?
A: The GI24h was 6.66 ± 5.34 % of dose.

Q: And the Ae24h ([2]; IV 10 mg/kg, urine 24 h)?
A: Its Ae24h is 2.50 ± 1.15 % of dose.

Q: And the clearance ([2]; Sprague-Dawley, rat, blood (plasma CL divided by RB), IV 10 mg/kg, read-out: Total blood clearance (CL/RB))?
A: Its clearance is 191 ± 34 mL/min/kg.

Q: And the clearance ([2]; rat, IV 10 mg/kg, total plasma clearance, read-out: CL)?
A: Its clearance is 199 ± 36 mL/min/kg.

Q: And the AUC(0-inf) ([2]; rat, plasma, IV 10 mg/kg)?
A: The AUC(0-inf) was 855 ng·h/mL.

Q: What about the half-life ([2]; rat, plasma, IV 10 mg/kg) of the same compound?
A: The half-life was 40.3 ± 7.2 min.

Q: And the Vd ([2]; rat, plasma, IV 10 mg/kg, read-out: Vss)?
A: The Vd was 2.22 ± 0.507 L/kg.

Q: What about the Hepatic extraction ratio ([2]; speculated from blood clearance vs hepatic blood flow) of the same compound?
A: Its Hepatic extraction ratio is roughly 1.

Q: And the GI24h ([3]; PO 100 mg/kg, GI tract at 24 h)?
A: Its GI24h is 29.3 ± 22.3 % of dose.

Q: And the Ae24h ([3]; PO 100 mg/kg, urine 24 h)?
A: The Ae24h was 0.0601 ± 0.0634 % of dose.

Q: What about the AUC(0-t) ([3]; rat, plasma, PO 100 mg/kg) of the same compound?
A: Its AUC(0-t) is 12.9 ng·h/mL.

Q: And the Cmax ([3]; rat, plasma, PO 100 mg/kg)?
A: The Cmax was 52.1 ± 50.5 ng/mL.

Q: And the Tmax ([3]; rat, plasma, PO 100 mg/kg, median (range))?
A: The Tmax was 5 min.

Q: What about the bioavailability ([3]; rat, urine, PO 100 mg/kg vs IV 10 mg/kg, from dose-normalized urinary excretion, read-out: F (absolute oral bioavailability)) of the same compound?
A: The bioavailability was 2.34%.
